From the supplement of paper PMC11208160

assay: recombinant UMI read abundance after kanamycin selection (control-corrected) (log10(CPM+1)); higher = more efficient recombination; extreme values may be limits of the assay; sequences stand for … in AGTGCAGAGAAAATCGGCCAGTTTTCTCTGCCTGCAGTCCGCATGCCGTGGGACCCCTTGGGTTCTAACCTGTTGCCTAGATTTATGCAGCGGACTGCCTTTCTCCCAAAGTGATAAACCGG…AGGTTGGTTTCACT; site = the 11-nt donor
Summary of the method: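 Counts of recombinant UMIs were reported as log10(CPM+1). Before that, they were converted to CPM, averaged over replicates and scaled using control-derived factors. They came from PCR across the donor–target junction after Escherichia coli carrying the pair library and target plasmid was plated on IPTG (0.07 mM) plus kanamycin, or unselected, in two replicates each.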
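Further: IS621 bridge recombinase in Escherichia coli cells against a fixed T5 target plasmid.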

| Sequence | recombinant UMI read abundance (log10) |
| --- | --- |
| CTCTTCTCATGGACCGGTTTTCCCGGTAATCCGTATTTGGG (site CGCTTCTCTCC) | 0.014 |
| CTCTTCTCATGGACCGGTTTTCCCGGTAATCCGTATTTGGG (site CTCTTCTCTCC) | 0 |
| CTCTTGGCATGGACCGGTTTTCCCGGTAATCCGTATTTGAA (site CTCTTGGCTTT) | 1.08 |
| CTCTTTGCATGGACCGGTTTTCCCGGTAATCCGTATTTGAC (site CTCTTTGCTGT) | 0.503 |
| CTGAACCCATGGACCGGTTTTCCCGGTAATCCGTATTTGTT (site CGGAATCCTAA) | 0.0138 |
| CTGAACCCATGGACCGGTTTTCCCGGTAATCCGTATTTGTT (site CTGAACCCTAA) | 0.285 |
| CTGAACTCATGGACCGGTTTTCCCGGTAATCCGTATTTGCG (site CTGAACTCTCG) | 2.99 |
| CTGAATCCATGGACCGGTTTTCCCGGTAATCCGTATTTGGT (site CGGAATCCTAA) | 0.0153 |
| CTGAATCCATGGACCGGTTTTCCCGGTAATCCGTATTTGGT (site CTGAATCCTAC) | 0.615 |
| CTGACATCATGGACCGGTTTTCCCGGTAATCCGTATTTGCT (site CAGACATCTAG) | 1.06 |
| CTGACATCATGGACCGGTTTTCCCGGTAATCCGTATTTGCT (site CCGACATCTAG) | 1.39 |
| CTGACATCATGGACCGGTTTTCCCGGTAATCCGTATTTGCT (site CGGACATCTAG) | 0.00554 |
| CTGACATCATGGACCGGTTTTCCCGGTAATCCGTATTTGCT (site CTGACATCTAG) | 2.47 |
| CTGACGACATGGACCGGTTTTCCCGGTAATCCGTATTTGTT (site CTGACGACTAA) | 0.0946 |
| CTGACTCCATGGACCGGTTTTCCCGGTAATCCGTATTTGTT (site CGGAATCCTAA) | 0.00356 |
| CTGACTCCATGGACCGGTTTTCCCGGTAATCCGTATTTGTT (site CTGACTCCTAA) | 0.838 |
| CTGATCCCATGGACCGGTTTTCCCGGTAATCCGTATTTGTG (site CTGATCCCTCA) | 0.794 |
| CTGCAAGCATGGACCGGTTTTCCCGGTAATCCGTATTTGTA (site CTGCAAGCTTA) | 1.8 |
| CTGCCATCATGGACCGGTTTTCCCGGTAATCCGTATTTGGT (site CTGCCATCTAC) | 0 |
| CTGCCCTCATGGACCGGTTTTCCCGGTAATCCGTATTTGTT (site CTGCCCTCTAA) | 2.18 |
| CTGCGTACATGGACCGGTTTTCCCGGTAATCCGTATTTGAT (site CTGCGTACTAT) | 1.81 |
| CTGCGTTCATGGACCGGTTTTCCCGGTAATCCGTATTTGAG (site CTGCGTTCTCT) | 2.26 |
| CTGCTAACATGGACCGGTTTTCCCGGTAATCCGTATTTGCT (site CTGCTAACTAG) | 2.26 |
| CTGCTAACATGGACCGGTTTTCCCGGTAATCCGTATTTGCT (site CTGCTACCTAG) | 0 |
| CTGCTAACATGGACCGGTTTTCCCGGTAATCCGTATTTGCT (site CTGCTAGCTAG) | 0.313 |

| Sequence | recombinant UMI read abundance (log10) |
| --- | --- |
| CTGCTAACATGGACCGGTTTTCCCGGTAATCCGTATTTGCT (site CTGCTATCTAG) | 0.474 |
| CTGCTACCATGGACCGGTTTTCCCGGTAATCCGTATTTGCA (site CTGCTACCTAG) | 0.00394 |
| CTGCTACCATGGACCGGTTTTCCCGGTAATCCGTATTTGCA (site CTGCTACCTCG) | 0.00238 |
| CTGCTACCATGGACCGGTTTTCCCGGTAATCCGTATTTGCA (site CTGCTACCTGG) | 0 |
| CTGCTACCATGGACCGGTTTTCCCGGTAATCCGTATTTGCA (site CTGCTACCTTG) | 0 |
| CTGCTACCATGGACCGGTTTTCCCGGTAATCCGTATTTGGG (site CTGCTACCTCC) | 0.0335 |
| CTGCTACCATGGACCGGTTTTCCCGGTAATCCGTATTTGGT (site CTGCTACCTAA) | 0.00859 |
| CTGCTACCATGGACCGGTTTTCCCGGTAATCCGTATTTGGT (site CTGCTACCTAC) | 0.00854 |
| CTGCTACCATGGACCGGTTTTCCCGGTAATCCGTATTTGGT (site CTGCTACCTAG) | 0 |
| CTGCTACCATGGACCGGTTTTCCCGGTAATCCGTATTTGGT (site CTGCTACCTAT) | 0.00703 |
| CTGCTGACATGGACCGGTTTTCCCGGTAATCCGTATTTGAT (site CTGCTGACTAT) | 2.13 |
| CTGCTTCCATGGACCGGTTTTCCCGGTAATCCGTATTTGGT (site CTGCTTCCTAC) | 0.0707 |
| CTGGAAACATGGACCGGTTTTCCCGGTAATCCGTATTTGAA (site CTGGAAACTTA) | 0.0938 |
| CTGGAAACATGGACCGGTTTTCCCGGTAATCCGTATTTGAA (site CTGGAAACTTC) | 0.988 |
| CTGGAAACATGGACCGGTTTTCCCGGTAATCCGTATTTGAA (site CTGGAAACTTG) | 0 |
| CTGGAAACATGGACCGGTTTTCCCGGTAATCCGTATTTGAA (site CTGGAAACTTT) | 2.09 |
| CTGGAAACATGGACCGGTTTTCCCGGTAATCCGTATTTGCA (site ATGGAAACTTG) | 0 |
| CTGGAAACATGGACCGGTTTTCCCGGTAATCCGTATTTGCA (site CAGGAAACTTG) | 1.85 |
| CTGGAAACATGGACCGGTTTTCCCGGTAATCCGTATTTGCA (site CCGGAAACTTG) | 1.93 |
| CTGGAAACATGGACCGGTTTTCCCGGTAATCCGTATTTGCA (site CGGGAAACTTG) | 0 |
| CTGGAAACATGGACCGGTTTTCCCGGTAATCCGTATTTGCA (site CTAGAAACTTG) | 2.19 |
| CTGGAAACATGGACCGGTTTTCCCGGTAATCCGTATTTGCA (site CTCGAAACTTG) | 0 |
| CTGGAAACATGGACCGGTTTTCCCGGTAATCCGTATTTGCA (site CTGAAAACTTG) | 0.744 |
| CTGGAAACATGGACCGGTTTTCCCGGTAATCCGTATTTGCA (site CTGCAAACTTG) | 0 |
| CTGGAAACATGGACCGGTTTTCCCGGTAATCCGTATTTGCA (site CTGGAAACTAG) | 0 |

| Sequence | recombinant UMI read abundance (log10) |
| --- | --- |
| CTGGAAACATGGACCGGTTTTCCCGGTAATCCGTATTTGCA (site CTGGAAACTCG) | 0.843 |
| CTGGAAACATGGACCGGTTTTCCCGGTAATCCGTATTTGCA (site CTGGAAACTGG) | 0 |
| CTGGAAACATGGACCGGTTTTCCCGGTAATCCGTATTTGCA (site CTGGAAACTTA) | 1.34 |
| CTGGAAACATGGACCGGTTTTCCCGGTAATCCGTATTTGCA (site CTGGAAACTTC) | 0 |
| CTGGAAACATGGACCGGTTTTCCCGGTAATCCGTATTTGCA (site CTGGAAACTTG) | 2.2 |
| CTGGAAACATGGACCGGTTTTCCCGGTAATCCGTATTTGCA (site CTGGAAACTTT) | 2.16 |
| CTGGAAACATGGACCGGTTTTCCCGGTAATCCGTATTTGCA (site CTGGAACCTTG) | 0.0058 |
| CTGGAAACATGGACCGGTTTTCCCGGTAATCCGTATTTGCA (site CTGGAAGCTTG) | 1.51 |
| CTGGAAACATGGACCGGTTTTCCCGGTAATCCGTATTTGCA (site CTGGAATCTTG) | 1.21 |
| CTGGAAACATGGACCGGTTTTCCCGGTAATCCGTATTTGCA (site CTGGACACTTG) | 0.00329 |
| CTGGAAACATGGACCGGTTTTCCCGGTAATCCGTATTTGCA (site CTGGAGACTTG) | 1.43 |
| CTGGAAACATGGACCGGTTTTCCCGGTAATCCGTATTTGCA (site CTGGATACTTG) | 0.526 |
| CTGGAAACATGGACCGGTTTTCCCGGTAATCCGTATTTGCA (site CTGGCAACTTG) | 0.416 |
| CTGGAAACATGGACCGGTTTTCCCGGTAATCCGTATTTGCA (site CTGGGAACTTG) | 0.596 |
| CTGGAAACATGGACCGGTTTTCCCGGTAATCCGTATTTGCA (site CTGGTAACTTG) | 0.00624 |
| CTGGAAACATGGACCGGTTTTCCCGGTAATCCGTATTTGCA (site CTGTAAACTTG) | 0.123 |
| CTGGAAACATGGACCGGTTTTCCCGGTAATCCGTATTTGCA (site CTTGAAACTTG) | 0.578 |
| CTGGAAACATGGACCGGTTTTCCCGGTAATCCGTATTTGCA (site GTGGAAACTTG) | 0.00967 |
| CTGGAAACATGGACCGGTTTTCCCGGTAATCCGTATTTGCA (site TTGGAAACTTG) | 0 |
| CTGGAAACATGGACCGGTTTTCCCGGTAATCCGTATTTGCC (site CTGGAAACTAG) | 0 |
| CTGGAAACATGGACCGGTTTTCCCGGTAATCCGTATTTGCC (site CTGGAAACTCG) | 0 |
| CTGGAAACATGGACCGGTTTTCCCGGTAATCCGTATTTGCC (site CTGGAAACTGG) | 0 |
| CTGGAAACATGGACCGGTTTTCCCGGTAATCCGTATTTGCC (site CTGGAAACTTG) | 0.22 |
| CTGGAAACATGGACCGGTTTTCCCGGTAATCCGTATTTGCG (site CTGGAAACTAG) | 0 |
| CTGGAAACATGGACCGGTTTTCCCGGTAATCCGTATTTGCG (site CTGGAAACTCG) | 2.37 |
